This passage reports IC50 results from ChEMBL document CHEMBL1201862, “PubChem BioAssay data set” (2004).

The target in test [1] is T1, Alkaline phosphatase, tissue-nonspecific isozyme (Homo sapiens, UniProt P05186).
T1 sequence (P05186 whole entry): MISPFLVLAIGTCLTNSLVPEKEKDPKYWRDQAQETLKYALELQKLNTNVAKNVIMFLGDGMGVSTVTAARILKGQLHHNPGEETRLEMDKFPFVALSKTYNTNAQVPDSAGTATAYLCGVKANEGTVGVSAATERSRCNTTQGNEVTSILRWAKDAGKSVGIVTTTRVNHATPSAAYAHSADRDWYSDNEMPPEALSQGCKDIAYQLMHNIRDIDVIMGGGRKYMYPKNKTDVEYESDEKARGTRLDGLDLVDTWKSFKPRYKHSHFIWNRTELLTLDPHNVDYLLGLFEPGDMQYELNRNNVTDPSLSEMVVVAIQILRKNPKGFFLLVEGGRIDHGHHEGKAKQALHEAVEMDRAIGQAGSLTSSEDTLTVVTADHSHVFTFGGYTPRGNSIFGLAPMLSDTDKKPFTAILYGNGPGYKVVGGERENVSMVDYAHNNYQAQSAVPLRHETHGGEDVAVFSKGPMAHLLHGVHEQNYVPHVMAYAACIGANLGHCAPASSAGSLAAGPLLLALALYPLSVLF
The test can be described thus: human TNAP enzyme inhibitors, SAR follow-up, biochemical, luminescent, dose response (AID 1056).

Test [2] in a line: Counterscreen for IDE inhibitors: Luminescence-based cell-based high throughput dose response assay to identify compounds that are cytotoxic to HEK cells. [Related pubchem assays: 434962 (Primary screen (IDE inhibitors in singlicate)), 449730 (Counterscreen (Cytotoxicity in triplicate)), 435028 (Confirmation (IDE inhibitors in triplicate)) …. Format: functional. The following applies: HEK293.

The next test has as its target T2, Insulin-degrading enzyme (Homo sapiens, UniProt P14735).
T2 sequence (P14735 whole entry): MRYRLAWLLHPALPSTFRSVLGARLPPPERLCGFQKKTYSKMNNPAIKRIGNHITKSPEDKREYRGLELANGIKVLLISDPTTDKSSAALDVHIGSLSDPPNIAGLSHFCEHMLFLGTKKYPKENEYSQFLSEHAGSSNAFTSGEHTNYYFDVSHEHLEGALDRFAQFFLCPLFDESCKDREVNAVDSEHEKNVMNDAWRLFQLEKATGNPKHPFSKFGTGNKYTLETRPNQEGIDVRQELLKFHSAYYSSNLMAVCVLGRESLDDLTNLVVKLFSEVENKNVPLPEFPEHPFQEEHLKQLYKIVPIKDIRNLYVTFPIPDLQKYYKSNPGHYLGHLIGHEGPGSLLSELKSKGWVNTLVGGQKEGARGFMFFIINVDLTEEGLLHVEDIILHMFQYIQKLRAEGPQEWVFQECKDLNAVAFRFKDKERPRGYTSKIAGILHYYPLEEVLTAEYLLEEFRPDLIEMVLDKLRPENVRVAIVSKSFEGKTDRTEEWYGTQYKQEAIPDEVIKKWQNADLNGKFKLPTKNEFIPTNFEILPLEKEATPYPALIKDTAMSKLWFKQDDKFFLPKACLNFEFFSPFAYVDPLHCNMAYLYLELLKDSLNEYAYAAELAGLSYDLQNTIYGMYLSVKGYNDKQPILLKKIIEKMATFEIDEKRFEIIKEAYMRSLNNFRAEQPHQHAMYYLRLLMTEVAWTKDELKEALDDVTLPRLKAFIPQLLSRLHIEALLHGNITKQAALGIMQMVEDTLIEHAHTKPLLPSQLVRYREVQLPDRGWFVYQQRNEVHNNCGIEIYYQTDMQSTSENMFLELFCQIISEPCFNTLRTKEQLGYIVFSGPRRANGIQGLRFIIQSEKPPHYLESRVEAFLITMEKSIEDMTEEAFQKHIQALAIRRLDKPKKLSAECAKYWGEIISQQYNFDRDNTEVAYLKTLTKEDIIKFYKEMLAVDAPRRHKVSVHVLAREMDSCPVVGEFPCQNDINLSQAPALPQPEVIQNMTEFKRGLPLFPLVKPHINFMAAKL
Nature of the test: Dose Response: Fluorescence polarization-based cell-based high throughput dose response assay for inhibitors of insulin-degrading enzyme (IDE). [Related pubchem assays: 434962 (Primary screen (IDE inhibitors in singlicate)), 449730 (Counterscreen (Cytotoxicity in triplicate)), 435028 (Confirmation (IDE inhibitors in triplicate)), 434984 (Summary …. Format: functional. (In fluorescence polarisation assays a small probe gives low polarisation when free and higher when bound to something large.)

For test [3], the target named is T3, Mannose-6-phosphate isomerase (Homo sapiens, UniProt P34949).
T3 sequence (P34949 whole entry): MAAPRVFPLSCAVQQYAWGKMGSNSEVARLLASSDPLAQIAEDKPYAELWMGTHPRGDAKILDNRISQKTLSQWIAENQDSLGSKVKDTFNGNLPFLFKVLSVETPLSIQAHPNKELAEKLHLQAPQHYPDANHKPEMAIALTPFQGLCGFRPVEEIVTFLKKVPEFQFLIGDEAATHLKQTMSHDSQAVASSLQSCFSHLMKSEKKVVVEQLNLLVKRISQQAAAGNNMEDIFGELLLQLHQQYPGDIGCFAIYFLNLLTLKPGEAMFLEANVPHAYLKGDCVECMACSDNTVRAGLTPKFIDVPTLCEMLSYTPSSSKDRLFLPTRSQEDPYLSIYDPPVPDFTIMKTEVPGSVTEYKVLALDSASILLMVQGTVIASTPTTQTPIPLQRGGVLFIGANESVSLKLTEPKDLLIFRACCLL
Nature of the test: PMI enzyme inhibitors, confirmation, biochemical, fluorescence intensity (AID 1535).

For the next test, the target named is T4, Phosphomannomutase 2 (Homo sapiens, UniProt O15305).
T4 sequence (O15305 whole entry): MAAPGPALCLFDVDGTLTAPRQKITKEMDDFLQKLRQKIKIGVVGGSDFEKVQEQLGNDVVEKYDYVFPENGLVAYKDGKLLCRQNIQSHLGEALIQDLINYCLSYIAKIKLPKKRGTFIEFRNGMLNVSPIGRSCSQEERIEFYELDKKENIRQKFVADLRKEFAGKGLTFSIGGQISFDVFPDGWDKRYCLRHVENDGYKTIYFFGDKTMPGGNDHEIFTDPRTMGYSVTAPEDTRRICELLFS
The test can be described thus: Counter screen SAR assay for PMM2 inhibitors via a fluorescence intensity assay. [Related pubchem assays (depositor defined):AID1545, AID1574].

For test [4], the target named is Phosphoethanolamine/phosphocholine phosphatase (Homo sapiens, UniProt Q8TCT1). Nature of the test: SAR assay for compounds that inhibit PHOSPHO1. [Related pubchem assays (depositor defined):AID1545, AID1565, AID1574].
The target of test [5] is DNA dC->dU-editing enzyme APOBEC-3G (Homo sapiens, UniProt Q9HC16). Nature of the test: Dose Response confirmation of small molecule APOBEC3G DNA Deaminase Inhibitors via a fluorescence-based single-stranded DNA deaminase assay. [Related pubchem assays (depositor defined):AID493012, AID493028]. Format: functional.
Test [6] concerns the target DNA dC->dU-editing enzyme APOBEC-3A (Homo sapiens, UniProt P31941). The test can be described thus: APOBEC3A DNA deaminase inhibitors, dose response, biochemical (AID 504722). It counts as functional.
The target in test [7] is T5, Rac GTPase-activating protein 1 (Homo sapiens, UniProt Q9H0H5).
T5 sequence (Q9H0H5 whole entry): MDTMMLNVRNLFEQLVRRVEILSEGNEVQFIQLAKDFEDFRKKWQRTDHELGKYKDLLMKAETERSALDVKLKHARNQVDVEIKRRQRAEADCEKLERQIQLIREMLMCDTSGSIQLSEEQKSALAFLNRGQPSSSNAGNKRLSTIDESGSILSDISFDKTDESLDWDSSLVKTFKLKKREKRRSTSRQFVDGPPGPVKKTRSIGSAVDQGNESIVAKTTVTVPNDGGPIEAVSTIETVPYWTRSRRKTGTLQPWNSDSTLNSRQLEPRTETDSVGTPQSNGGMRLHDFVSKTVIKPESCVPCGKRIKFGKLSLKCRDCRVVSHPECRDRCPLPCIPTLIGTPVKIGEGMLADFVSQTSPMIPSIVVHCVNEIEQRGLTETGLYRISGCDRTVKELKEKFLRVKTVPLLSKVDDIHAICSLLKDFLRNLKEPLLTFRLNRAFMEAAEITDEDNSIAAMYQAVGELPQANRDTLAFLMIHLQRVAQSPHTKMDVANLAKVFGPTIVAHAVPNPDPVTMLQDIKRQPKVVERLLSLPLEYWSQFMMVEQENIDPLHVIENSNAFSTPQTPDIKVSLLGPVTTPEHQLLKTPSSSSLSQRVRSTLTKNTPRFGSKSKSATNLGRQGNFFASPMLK
Nature of the test: MgcRacGAP GTPase-activating activity inhibitors, confirmation, biochemical, ADP Hunter fluorescence, primary and confirmatory (AID 624330). Format: functional.

One may read the IC50 as the point on the concentration scale where inhibition reaches its midpoint.

Active and inactive are the calls of the source.

DNA dC->dU-editing enzyme APOBEC-3A, sequence (P31941 whole entry): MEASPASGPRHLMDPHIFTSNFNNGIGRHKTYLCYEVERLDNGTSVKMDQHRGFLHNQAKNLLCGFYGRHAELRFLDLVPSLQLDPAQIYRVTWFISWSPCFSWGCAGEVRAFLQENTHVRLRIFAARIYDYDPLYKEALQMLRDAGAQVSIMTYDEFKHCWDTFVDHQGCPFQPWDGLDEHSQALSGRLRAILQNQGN
Phosphoethanolamine/phosphocholine phosphatase, sequence (Q8TCT1 whole entry): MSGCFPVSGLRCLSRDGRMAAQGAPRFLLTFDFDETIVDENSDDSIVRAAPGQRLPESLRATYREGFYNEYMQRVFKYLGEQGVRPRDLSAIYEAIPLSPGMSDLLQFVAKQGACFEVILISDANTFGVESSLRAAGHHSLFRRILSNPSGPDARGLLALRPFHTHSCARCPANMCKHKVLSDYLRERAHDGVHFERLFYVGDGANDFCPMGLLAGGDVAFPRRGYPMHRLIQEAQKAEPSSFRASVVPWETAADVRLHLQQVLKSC
DNA dC->dU-editing enzyme APOBEC-3G, sequence (Q9HC16 whole entry): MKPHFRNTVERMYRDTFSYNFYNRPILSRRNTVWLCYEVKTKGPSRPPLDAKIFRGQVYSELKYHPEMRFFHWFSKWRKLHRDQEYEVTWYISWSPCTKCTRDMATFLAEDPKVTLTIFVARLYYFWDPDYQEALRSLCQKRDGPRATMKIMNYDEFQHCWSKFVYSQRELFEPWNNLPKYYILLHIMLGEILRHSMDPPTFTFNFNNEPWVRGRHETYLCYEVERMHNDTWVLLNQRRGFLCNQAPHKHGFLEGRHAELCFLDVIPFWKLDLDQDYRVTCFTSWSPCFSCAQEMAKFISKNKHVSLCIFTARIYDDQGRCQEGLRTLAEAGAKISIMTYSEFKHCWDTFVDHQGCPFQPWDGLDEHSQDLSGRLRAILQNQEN

Turning to `O=C(O)c1cccc(-n2sc3ccccc3c2=O)c1`, the IC50 is > 100 µM (inactive) in test [1]; 36.7 µM (not active) in [2]; 2.38 µM (active) on Insulin-degrading enzyme; 3.29 µM (active) in test [3]; 52.5 µM (active) on Phosphomannomutase 2; 1.14 µM (inactive) in test [4]. The IC50 in test [5] was 4.85 µM (active); in [6], > 100 µM (inactive); in test [7], 30.1 µM (active).
